Drawing on US20170166555A1, “FUNCTIONALISED AND SUBSTITUTED INDOLES AS ANTI-CANCER AGENTS” (Novogen Limited, priority 2013, published 2017), this text covers IC50 for 15 compounds.

Structures are written as SMILES. Like-named read-outs stand apart in the source and are kept apart here. Bounds are passed on as bounds.

Holding throughout (experiment): Anti-proliferative assay, cell-titre luminescent reagent, 72 h (GVK-BIO)
Common to all, as to type: cell-based

Assay [1] concerns A549 non-small cell lung carcinoma cells. As to conditions: Homo sapiens, read-out: IC50/μM Lung (NSLC) A549. The method, boiled down:
(§1)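 Luminescent cell-titre viability was read 30 min after reagent addition, following 72 h compound exposure of cells pre-cultured 24 h at 37 °C, 5% CO2. Dose sets were 30–0.03 μM (4 points) or 30–0.1 μM (6 points), giving IC50 by linear regression or EC50 by nonlinear variable-slope fit vs vehicle.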

For assay [2], the system named is CaCo2 colorectal cancer cells. The settings on record: Homo sapiens. Summed up: as §1
The subject of assay [3] is DU145 prostate cancer cells. The settings on record: Homo sapiens. Summed up:
as §1

Assay [4] concerns MDA-MB-231 triple negative breast cancer cells. As to conditions: Homo sapiens. The method, boiled down: as §1
The test system of assay [5] is PC3 prostate cancer cells. Summed up: as §1
The test system of the next assay is SK-Mel-28 melanoma cells. The settings on record: Homo sapiens. The method, boiled down: as §1
The subject of assay [6] is SK-N-SH neuroblastoma cells. The settings on record: Homo sapiens. Summed up:
as §1

[7] abbreviates: A549, 72 h, 30, 3, 0.3 and 0.03 μM, linear regression (Tables 2-4).
[8] abbreviates: Caco-2, 72 h, 30, 3, 0.3 and 0.03 μM, linear regression (Tables 2-4).
Where [9] appears, read: DU-145, 72 h, 30, 3, 0.3 and 0.03 μM, linear regression (Tables 2-4).
Where [10] appears, read: MDA-MB-231, 72 h, 30, 3, 0.3 and 0.03 μM, linear regression (Tables 2-4).
[11] abbreviates: 30, 3, 0.3 and 0.03 μM, linear regression (Tables 2-4).
[12] abbreviates: SK-MEL-28, 72 h, 30, 3, 0.3 and 0.03 μM, linear regression (Tables 2-4).
The mark [13] stands for this setting: SK-N-SH, 30, 3, 0.3 and 0.03 μM, linear regression (Tables 2-4).
The mark [14] stands for this setting: A549, 72 h, 30, 10, 3, 1, 0.3 and 0.1 μM, nonlinear regression (Table 5).
Where [15] appears, read: Caco-2, 72 h, 30, 10, 3, 1, 0.3 and 0.1 μM, nonlinear regression (Table 5).
The mark [16] stands for this setting: DU-145, 72 h, 30, 10, 3, 1, 0.3 and 0.1 μM, nonlinear regression (Table 5).
The mark [17] stands for this setting: MDA-MB-231, 72 h, 30, 10, 3, 1, 0.3 and 0.1 μM, nonlinear regression (Table 5).
[18] abbreviates: 30, 10, 3, 1, 0.3 and 0.1 μM, nonlinear regression (Table 5).
[19] abbreviates: SK-MEL-28, 72 h, 30, 10, 3, 1, 0.3 and 0.1 μM, nonlinear regression (Table 5).
The mark [20] stands for this setting: SK-N-SH, 30, 10, 3, 1, 0.3 and 0.1 μM, nonlinear regression (Table 5).

With `Cc1c(C)n(CCCN(C)C)c2ccc(Nc3ccc(C(=O)Nc4cccc(F)c4)cc3)cc12` [Compound 4107, 4-((1-(3-(dimethylamino)propyl)-2,3-dimethyl-1H-indol-5-yl)amino)-N-(3-fluorophenyl)benzamide], the IC50 in assay [1] (setting [7]) was determined as 2.9 µM; in assay [2] (setting [8]), 3.6 µM; in assay [3] (setting [9]) it was 3.5 µM; in assay [4] (setting [10]), 2.8 µM; in assay [5] (setting [11]) it was 3.5 µM; in the assay with SK-Mel-28 melanoma cells (setting [12]) it was 2.8 µM. For the same compound, in assay [6] (setting [13]), the IC50 stood at 3.6 µM.
As for `COc1cccc(NC(=O)c2ccc(Nc3ccc4c(c3)c(C)c(C)n4CCCN(C)C)cc2)c1` [Compound 4108, 4-((1-(3-(dimethylamino)propyl)-2,3-dimethyl-1H-indol-5-yl)amino)-N-(3-methoxyphenyl)benzamide], the IC50 in assay [1] (setting [7]) stood at 3.4 µM; in assay [2] (setting [8]), 2.1 µM; in assay [3] (setting [9]), 3.5 µM; in assay [4] (setting [10]), 2.2 µM; in assay [5] (setting [11]), 3.6 µM; in the assay with SK-Mel-28 melanoma cells (setting [12]) it was 2.9 µM. The compound further returned an IC50 in assay [6] (setting [13]) of 2.9 µM.
With `Cc1c(C)n(CCCN(C)C)c2ccc(CN3CCN(CCc4ccc(F)cc4)CC3)cc12` [Compound 4109, 3-(5-((4-(4-fluorophenethyl)piperazin-1-yl)methyl)-2,3-dimethyl-1H-indol-1-yl)-N,N-dimethylpropan-1-amine], the IC50 in assay [1] (setting [14]) was 6.5 µM; in assay [2] (setting [15]), 9.1 µM; in assay [3] (setting [16]) it was 5.3 µM; in assay [4] (setting [17]), 3.6 µM; in assay [5] (setting [18]) it was 9.5 µM; in the assay on SK-Mel-28 melanoma cells (setting [19]), 1 µM. In addition, the IC50 in assay [6] (setting [20]) is 3.7 µM.
For `Cc1c(C)n(CCCN2CCN(C)CC2)c2ccc(CN3CCN(CCc4ccc(F)cc4)CC3)cc12` [Compound 4110, 5-((4-(4-fluorophenethyl)piperazin-1-yl)methyl)-2,3-dimethyl-1-(3-(4-methylpiperazin-1-yl)propyl)-1H-indole], the IC50 in assay [1] (setting [14]) was 33.2 µM; in assay [2] (setting [15]), 12.9 µM; in assay [3] (setting [16]), 22.7 µM; in assay [4] (setting [17]) it was 6.9 µM; in assay [5] (setting [18]) it was 17.7 µM; in the assay with SK-Mel-28 melanoma cells (setting [19]), 4.4 µM. Moreover, in assay [6] (setting [20]), the IC50 is 4.2 µM.
Take `COc1ccc(CCN2CCN(Cc3ccc4c(c3)c(C)c(C)n4CCCN3CCN(C)CC3)CC2)cc1` [Compound 4111, 5-((4-(4-methoxyphenethyl)piperazin-1-yl)methyl)-2,3-dimethyl-1-(3-(4-methylpiperazin-1-yl)propyl)-1H-indole]: the IC50 in assay [1] (setting [14]) amounted to 5.5 µM; in assay [2] (setting [15]), 7.9 µM; in assay [3] (setting [16]), 11.3 µM; in assay [4] (setting [17]), 3.9 µM; in assay [5] (setting [18]) it was 7.5 µM; in the assay with SK-Mel-28 melanoma cells (setting [19]), 2.4 µM. The IC50 in assay [6] (setting [20]) was 3.4 µM.
On to `Cc1c(C)n(CCCN2CCN(C)CC2)c2ccc(CN3CCN(CCc4ccc(O)cc4)CC3)cc12` [Compound 4112, 4-(2-(4-((2,3-dimethyl-1-(3-(4-methylpiperazin-1-yl)propyl)-1H-indol-5-yl)methyl)piperazin-1-yl)ethyl)phenol], for which the IC50 worked out at 5.9 µM in assay [1] (setting [14]); 17.5 µM in assay [2] (setting [15]); 8.3 µM in assay [3] (setting [16]); 11.8 µM in assay [4] (setting [17]); 8.4 µM in assay [5] (setting [18]); 13 µM in the assay on SK-Mel-28 melanoma cells (setting [19]). Also, the IC50 in assay [6] (setting [20]) came to 7 µM.
As to `COc1cccc(CCN2CCN(Cc3ccc4c(c3)c(C)c(C)n4CCCN3CCN(C)CC3)CC2)c1` [Compound 4115, 5-((4-(3-methoxyphenethyl)piperazin-1-yl)methyl)-2,3-dimethyl-1-(3-(4-methylpiperazin-1-yl)propyl)-1H-indole], the IC50 in assay [1] (setting [14]) is 8.8 µM; in assay [2] (setting [15]) it was 6.2 µM; in assay [3] (setting [16]), 6.1 µM; in assay [4] (setting [17]) it was 3.4 µM; in assay [5] (setting [18]), 9.4 µM; in the assay on SK-Mel-28 melanoma cells (setting [19]), 1.1 µM. This compound yielded an IC50 in assay [6] (setting [20]) of 4.9 µM.
On to `Cc1c(C)n(CCCN2CCN(C)CC2)c2ccc(CN3CCN(CCc4cccc(O)c4)CC3)cc12` [Compound 4116, 3-(2-(4-((2,3-dimethyl-1-(3-(4-methylpiperazin-1-yl)propyl)-1H-indol-5-yl)methyl)piperazin-1-yl)ethyl)phenol], for which the IC50 in assay [1] (setting [14]) came to 10.1 µM; in assay [2] (setting [15]) it was 6 µM; in assay [3] (setting [16]) it was 7.6 µM; in assay [4] (setting [17]), 4.1 µM; in assay [5] (setting [18]), 13.2 µM; in the assay on SK-Mel-28 melanoma cells (setting [19]), 3.2 µM. The compound further gave an IC50 in assay [6] (setting [20]) of 4.6 µM.
As for `Cc1c(C)n(CCCN2CCN(C)CC2)c2ccc(CN3CCN(CCc4ccccc4)CC3)cc12` [Compound 4117, 2,3-dimethyl-1-(3-(4-methylpiperazin-1-yl)propyl)-5-((4-phenethylpiperazin-1-yl)methyl)-1H-indole], the IC50 in assay [1] (setting [14]) was 8.6 µM; in assay [2] (setting [15]), 8.2 µM; in assay [3] (setting [16]) it was 5.6 µM; in assay [4] (setting [17]), 3.5 µM; in assay [5] (setting [18]), 10.2 µM; with SK-Mel-28 melanoma cells (setting [19]), 2 µM. Moreover, in assay [6] (setting [20]), the IC50 came to 4.6 µM.
For `Cc1c(C)n(CCCN(C)C)c2ccc(C(=O)N3CCN(CCc4ccc(F)cc4)CC3)cc12` [Compound 4118, (1-(3-(dimethylamino)propyl)-2,3-dimethyl-1H-indol-5-yl)(4-(4-fluorophenethyl)piperazin-1-yl)methanone], the IC50 in assay [1] (setting [7]) was above 30 µM; in assay [2] (setting [8]), above 30 µM; in assay [3] (setting [9]) it was above 30 µM; in assay [4] (setting [10]), above 30 µM; in assay [5] (setting [11]), above 30 µM; in the assay with SK-Mel-28 melanoma cells (setting [12]), 18.1 µM. This compound also had an IC50 in assay [6] (setting [13]) of 31.9 µM.
Turning to `Cc1c(C)n(CCCN(C)C)c2ccc(C(=O)N3CCN(CCc4ccc(O)cc4)CC3)cc12` [Compound 4119, (1-(3-(dimethylamino)propyl)-2,3-dimethyl-1H-indol-5-yl)(4-(4-hydroxyphenethyl)piperazin-1-yl)methanone], the IC50 (in assay [1] (setting [14]); in assay [2] (setting [15]); in assay [3] (setting [16]); in assay [4] (setting [17]); in assay [5] (setting [18]); with SK-Mel-28 melanoma cells (setting [19])) was above 30 µM throughout. This compound returned an IC50 in assay [6] (setting [20]) above 30 µM.
In the case of `Cc1c(C)n(CCCN2CCN(C)CC2)c2ccc(C(=O)N3CCN(CCc4ccc(F)cc4)CC3)cc12` [Compound 4120, (2,3-dimethyl-1-(3-(4-methylpiperazin-1-yl)propyl)-1H-indol-5-yl)(4-(4-fluorophenethyl)piperazin-1-yl)methanone], the IC50 in assay [1] (setting [7]) was 23 µM; in assay [2] (setting [8]) it was above 30 µM; in assay [3] (setting [9]), above 30 µM; in assay [4] (setting [10]), above 30 µM; in assay [5] (setting [11]), above 30 µM; with SK-Mel-28 melanoma cells (setting [12]), 17.7 µM. Also, the IC50 in assay [6] (setting [13]) was determined as 13.8 µM.
As for `COc1ccc(CCN2CCN(C(=O)c3ccc4c(c3)c(C)c(C)n4CCCN3CCN(C)CC3)CC2)cc1` [Compound 4121, (2,3-dimethyl-1-(3-(4-methylpiperazin-1-yl)propyl)-1H-indol-5-yl)(4-(4-methoxyphenethyl)piperazin-1-yl)methanone], the IC50 in assay [1] (setting [7]) was 15.7 µM; in assay [2] (setting [8]), above 30 µM; in assay [3] (setting [9]), above 30 µM; in assay [4] (setting [10]) it was 13.2 µM; in assay [5] (setting [11]), above 30 µM; in the assay with SK-Mel-28 melanoma cells (setting [12]) it was 14.7 µM. Also, the IC50 in assay [6] (setting [13]) is 13.6 µM.
Turning to `Cc1c(C)n(CCCN2CCN(C)CC2)c2ccc(C(=O)N3CCN(CCc4ccc(O)cc4)CC3)cc12` [Compound 4122, (2,3-dimethyl-1-(3-(4-methylpiperazin-1-yl)propyl)-1H-indol-5-yl)(4-(4-hydroxyphenethyl)piperazin-1-yl)methanone], the IC50 (in assay [1] (setting [14]); in assay [2] (setting [15]); in assay [3] (setting [16]); in assay [4] (setting [17]); in assay [5] (setting [18]); with SK-Mel-28 melanoma cells (setting [19])) was above 30 µM each time. Moreover, in assay [6] (setting [20]), the IC50 is above 30 µM.
For `Cc1c(C)n(CCCN2CCN(C)CC2)c2ccc(C(=O)N3CCN(CCc4ccc5c(c4)OCO5)CC3)cc12` [Compound 4123, (4-(2-(benzo[d][1,3]dioxol-5-yl)ethyl)piperazin-1-yl)(2,3-dimethyl-1-(3-(4-methylpiperazin-1-yl)propyl)-1H-indol-5-yl)methanone], the IC50 was 15.6 µM in assay [1] (setting [7]); above 30 µM in assay [2] (setting [8]); above 30 µM in assay [3] (setting [9]); 16.3 µM in assay [4] (setting [10]); above 30 µM in assay [5] (setting [11]); 16.8 µM in the assay on SK-Mel-28 melanoma cells (setting [12]). The compound further gave an IC50 in assay [6] (setting [13]) of 12.3 µM.
